Experimental data as given in US6653339B2, “Method of treating irritable bowel syndrome” (Pfizer Inc., priority 2001, dated 2003).

Experiments:
Assay type in all cases: in vivo, human
irritable bowel syndrome [1] = assay: Clinical Study 2, controlled (slow) release darifenacin once daily vs placebo in irritable bowel syndrome; details: 12 weeks; for Constipation % of patients reporting AEs / Dry Mouth % of patients reporting AEs / Global Rating % Reduction from baseline / Loose Stool % Reduction from baseline / Pain Score % Reduction from baseline / Total AE % of patients reporting AEs / Urgency % Reduction from baseline / Vision % of patients reporting AEs: uncorrected
Text: (§1) The invention may be illustrated by the following clinical studies wherein the treatment of irritable bowel syndrome using darifenacin administered as a once-daily controlled (slow) release formulation in accordance with the prior art is compared with treatment using darifenacin administered as a thrice daily immediate release formulation in accordance with the present invention. Specifically, Clinical Studies 1 and 2 used controlled (slow) release formulations of darifenacin administered once daily (od) and Clinical Study 3 used an immediate release formulation of darifenacin administered three times daily (tid).
(§2) During each clinical study, four efficacy measures of irritable bowel syndrome severity were measured, viz. ‘Pain Score’ (Average daily pain score, a composite of severity and number of days of pain), ‘Loose Stool’ (Number of days on which loose or watery stool occurred), ‘Urgency’ (Number of days on which urgency occured) and so-called ‘Global Rating’ (Patient rating of their condition taking into account all symptoms, 0=no problems). Adverse events (AE) such as constipation, dry mouth and visual abnormalities were also recorded.
Clinical Study 2 was a multi-centre, double-blind, randomised, placebo-controlled parallel group study in which four dose strengths of darifenacin of 3.75 mg, 7.5 mg, 15 mg and 30 mg dosed od were compared with placebo. Treatment lasted 12 weeks following a 2-week run-in period.
The controlled (slow) release dosage forms of darifenacin used in Clinical Studies 1 and 2 were 3.75 mg, 7.5 mg, 15.0 mg and 30.0 mg tablets having the following compositions: […]

irritable bowel syndrome [2] = assay: Clinical Study 3, immediate release darifenacin three times daily vs placebo in irritable bowel syndrome; details: for Constipation % of patients reporting AEs corrected for placebo / Dry Mouth % of patients reporting AEs corrected for placebo / Global Rating % Reduction from baseline corrected for placebo / Loose Stool % Reduction from baseline corrected for placebo / Pain Score % Reduction from baseline corrected for placebo / Total AE % of patients reporting AEs corrected for placebo / Urgency % Reduction from baseline corrected for placebo / Vision % of patients reporting AEs corrected for placebo / Constipation % of patients reporting AEs / Dry Mouth % of patients reporting AEs / Global Rating % Reduction from baseline / Loose Stool % Reduction from baseline / Pain Score % Reduction from baseline / Total AE % of patients reporting AEs / Urgency % Reduction from baseline / Vision % of patients reporting AEs: Clinical Study 3, 12 weeks; for Constipation % of patients reporting AEs / Dry Mouth % of patients reporting AEs / Global Rating % Reduction from baseline / Loose Stool % Reduction from baseline / Pain Score % Reduction from baseline / Total AE % of patients reporting AEs / Urgency % Reduction from baseline / Vision % of patients reporting AEs: uncorrected
Text: as §1, §2
Clinical Study 3 was a multi-centre, double-blind, randomised, placebo-controlled parallel group study in which three dose strengths of darifenacin 1.25, 2.5 and 5 mg dosed tid were compared with placebo. Treatment lasted 12 weeks following a 2-week run-in period.
The immediate release dosage forms of darifenacin used in Clinical Study 3 were 1.25 mg, 2.5 mg and 5.0 mg capsules having the following compositions in a Size 3 capsule shell: […]

[3] = Day 6 plasma concentrations of darifenacin, four-way crossover study in healthy male subjects; details: 7.5 mg tid immediate release capsule vs 20 mg SR od matrix tablet, healthy volunteers
[4] = controlled release tablet 3.75 mg od
[5] = controlled release tablet 7.5 mg od
[6] = controlled release tablet 15 mg od
[7] = controlled release tablet 30 mg od
[8] = immediate release capsule 3 × 1.25 mg (tid)
[9] = immediate release capsule 3 × 2.5 mg (tid)
[10] = immediate release capsule 3 × 5.0 mg (tid)

SMILES: NC(=O)C(c1ccccc1)(c1ccccc1)[C@@H]1CCN(CCc2ccc3c(c2)CCO3)C1 [darifenacin]
- Constipation % of patients reporting AEs corrected for placebo (irritable bowel syndrome [1]; [4]): 4.5%
- Dry Mouth % of patients reporting AEs corrected for placebo (irritable bowel syndrome [1]; [4]): 4.4%
- Global Rating % Reduction from baseline corrected for placebo (irritable bowel syndrome [1]; [4]): −7%
- Loose Stool % Reduction from baseline corrected for placebo (irritable bowel syndrome [1]; [4]): 8%
- Pain Score % Reduction from baseline corrected for placebo (irritable bowel syndrome [1]; [4]): −9%
- Total AE % of patients reporting AEs corrected for placebo (irritable bowel syndrome [1]; [4]): 6%
- Urgency % Reduction from baseline corrected for placebo (irritable bowel syndrome [1]; [4]): −1%
- Vision % of patients reporting AEs corrected for placebo (irritable bowel syndrome [1]; [4]): 0.7%
- Constipation % of patients reporting AEs (irritable bowel syndrome [1]; [4]): 6.4%
- Dry Mouth % of patients reporting AEs (irritable bowel syndrome [1]; [4]): 9.6%
- Global Rating % Reduction from baseline (irritable bowel syndrome [1]; [4]): 21%
- Loose Stool % Reduction from baseline (irritable bowel syndrome [1]; [4]): 31%
- Pain Score % Reduction from baseline (irritable bowel syndrome [1]; [4]): 28%
- Total AE % of patients reporting AEs (irritable bowel syndrome [1]; [4]): 22%
- Urgency % Reduction from baseline (irritable bowel syndrome [1]; [4]): 24%
- Vision % of patients reporting AEs (irritable bowel syndrome [1]; [4]): 1.3%
- Constipation % of patients reporting AEs corrected for placebo (irritable bowel syndrome [1]; [5]): 5.9%
- Dry Mouth % of patients reporting AEs corrected for placebo (irritable bowel syndrome [1]; [5]): 4.4%
- Global Rating % Reduction from baseline corrected for placebo (irritable bowel syndrome [1]; [5]): −1%
- Loose Stool % Reduction from baseline corrected for placebo (irritable bowel syndrome [1]; [5]): 16%
- Pain Score % Reduction from baseline corrected for placebo (irritable bowel syndrome [1]; [5]): 0%
- Total AE % of patients reporting AEs corrected for placebo (irritable bowel syndrome [1]; [5]): 6%
- Urgency % Reduction from baseline corrected for placebo (irritable bowel syndrome [1]; [5]): 8%
- Vision % of patients reporting AEs corrected for placebo (irritable bowel syndrome [1]; [5]): 0.6%
- Constipation % of patients reporting AEs (irritable bowel syndrome [1]; [5]): 7.8%
- Dry Mouth % of patients reporting AEs (irritable bowel syndrome [1]; [5]): 9.6%
- Global Rating % Reduction from baseline (irritable bowel syndrome [1]; [5]): 27%
- Loose Stool % Reduction from baseline (irritable bowel syndrome [1]; [5]): 39%
- Pain Score % Reduction from baseline (irritable bowel syndrome [1]; [5]): 37%
- Total AE % of patients reporting AEs (irritable bowel syndrome [1]; [5]): 22%
- Urgency % Reduction from baseline (irritable bowel syndrome [1]; [5]): 33%
- Vision % of patients reporting AEs (irritable bowel syndrome [1]; [5]): 1.2%
- Constipation % of patients reporting AEs corrected for placebo (irritable bowel syndrome [1]; [6]): 11.6%
- Dry Mouth % of patients reporting AEs corrected for placebo (irritable bowel syndrome [1]; [6]): 19.8%
- Global Rating % Reduction from baseline corrected for placebo (irritable bowel syndrome [1]; [6]): 4%
- Loose Stool % Reduction from baseline corrected for placebo (irritable bowel syndrome [1]; [6]): 30%
- Pain Score % Reduction from baseline corrected for placebo (irritable bowel syndrome [1]; [6]): 2%
- Total AE % of patients reporting AEs corrected for placebo (irritable bowel syndrome [1]; [6]): 15%
- Urgency % Reduction from baseline corrected for placebo (irritable bowel syndrome [1]; [6]): 22%
- Vision % of patients reporting AEs corrected for placebo (irritable bowel syndrome [1]; [6]): 2.6%
- Constipation % of patients reporting AEs (irritable bowel syndrome [1]; [6]): 13.5%
- Dry Mouth % of patients reporting AEs (irritable bowel syndrome [1]; [6]): 25%
- Global Rating % Reduction from baseline (irritable bowel syndrome [1]; [6]): 32%
- Loose Stool % Reduction from baseline (irritable bowel syndrome [1]; [6]): 53%
- Pain Score % Reduction from baseline (irritable bowel syndrome [1]; [6]): 39%
- Total AE % of patients reporting AEs (irritable bowel syndrome [1]; [6]): 41%
- Urgency % Reduction from baseline (irritable bowel syndrome [1]; [6]): 47%
- Vision % of patients reporting AEs (irritable bowel syndrome [1]; [6]): 3.2%
- Constipation % of patients reporting AEs corrected for placebo (irritable bowel syndrome [1]; [7]): 15.1%
- Dry Mouth % of patients reporting AEs corrected for placebo (irritable bowel syndrome [1]; [7]): 30.7%
- Global Rating % Reduction from baseline corrected for placebo (irritable bowel syndrome [1]; [7]): 8%
- Loose Stool % Reduction from baseline corrected for placebo (irritable bowel syndrome [1]; [7]): 27%
- Pain Score % Reduction from baseline corrected for placebo (irritable bowel syndrome [1]; [7]): 3%
- Total AE % of patients reporting AEs corrected for placebo (irritable bowel syndrome [1]; [7]): 34%
- Urgency % Reduction from baseline corrected for placebo (irritable bowel syndrome [1]; [7]): 26%
- Vision % of patients reporting AEs corrected for placebo (irritable bowel syndrome [1]; [7]): 4.6%
- Constipation % of patients reporting AEs (irritable bowel syndrome [1]; [7]): 17%
- Dry Mouth % of patients reporting AEs (irritable bowel syndrome [1]; [7]): 35.9%
- Global Rating % Reduction from baseline (irritable bowel syndrome [1]; [7]): 36%
- Loose Stool % Reduction from baseline (irritable bowel syndrome [1]; [7]): 50%
- Pain Score % Reduction from baseline (irritable bowel syndrome [1]; [7]): 40%
- Total AE % of patients reporting AEs (irritable bowel syndrome [1]; [7]): 50%
- Urgency % Reduction from baseline (irritable bowel syndrome [1]; [7]): 41%
- Vision % of patients reporting AEs (irritable bowel syndrome [1]; [7]): 5.2%
- Constipation % of patients reporting AEs corrected for placebo (irritable bowel syndrome [2]; [8]): 3.4%
- Dry Mouth % of patients reporting AEs corrected for placebo (irritable bowel syndrome [2]; [8]): 0.3%
- Global Rating % Reduction from baseline corrected for placebo (irritable bowel syndrome [2]; [8]): 9%
- Loose Stool % Reduction from baseline corrected for placebo (irritable bowel syndrome [2]; [8]): 8%
- Pain Score % Reduction from baseline corrected for placebo (irritable bowel syndrome [2]; [8]): 10%
- Total AE % of patients reporting AEs corrected for placebo (irritable bowel syndrome [2]; [8]): −4%
- Urgency % Reduction from baseline corrected for placebo (irritable bowel syndrome [2]; [8]): 11%
- Vision % of patients reporting AEs corrected for placebo (irritable bowel syndrome [2]; [8]): −2.2%
- Constipation % of patients reporting AEs (irritable bowel syndrome [2]; [8]): 6.3%
- Dry Mouth % of patients reporting AEs (irritable bowel syndrome [2]; [8]): 16%
- Global Rating % Reduction from baseline (irritable bowel syndrome [2]; [8]): 27%
- Loose Stool % Reduction from baseline (irritable bowel syndrome [2]; [8]): 16%
- Pain Score % Reduction from baseline (irritable bowel syndrome [2]; [8]): 33%
- Total AE % of patients reporting AEs (irritable bowel syndrome [2]; [8]): 36%
- Urgency % Reduction from baseline (irritable bowel syndrome [2]; [8]): 36%
- Vision % of patients reporting AEs (irritable bowel syndrome [2]; [8]): 1.4%
- Constipation % of patients reporting AEs corrected for placebo (irritable bowel syndrome [2]; [9]): 5.6%
- Dry Mouth % of patients reporting AEs corrected for placebo (irritable bowel syndrome [2]; [9]): 8.8%
- Global Rating % Reduction from baseline corrected for placebo (irritable bowel syndrome [2]; [9]): 11%
- Loose Stool % Reduction from baseline corrected for placebo (irritable bowel syndrome [2]; [9]): 22%
- Pain Score % Reduction from baseline corrected for placebo (irritable bowel syndrome [2]; [9]): 17%
- Total AE % of patients reporting AEs corrected for placebo (irritable bowel syndrome [2]; [9]): −3%
- Urgency % Reduction from baseline corrected for placebo (irritable bowel syndrome [2]; [9]): 17%
- Vision % of patients reporting AEs corrected for placebo (irritable bowel syndrome [2]; [9]): −0.1%
- Constipation % of patients reporting AEs (irritable bowel syndrome [2]; [9]): 5.6%
- Dry Mouth % of patients reporting AEs (irritable bowel syndrome [2]; [9]): 24.5%
- Global Rating % Reduction from baseline (irritable bowel syndrome [2]; [9]): 29%
- Loose Stool % Reduction from baseline (irritable bowel syndrome [2]; [9]): 30%
- Pain Score % Reduction from baseline (irritable bowel syndrome [2]; [9]): 40%
- Total AE % of patients reporting AEs (irritable bowel syndrome [2]; [9]): 37%
- Urgency % Reduction from baseline (irritable bowel syndrome [2]; [9]): 42%
- Vision % of patients reporting AEs (irritable bowel syndrome [2]; [9]): 3.5%
- Constipation % of patients reporting AEs corrected for placebo (irritable bowel syndrome [2]; [10]): 8.4%
- Dry Mouth % of patients reporting AEs corrected for placebo (irritable bowel syndrome [2]; [10]): 33.9%
- Global Rating % Reduction from baseline corrected for placebo (irritable bowel syndrome [2]; [10]): 14%
- Loose Stool % Reduction from baseline corrected for placebo (irritable bowel syndrome [2]; [10]): 44%
- Pain Score % Reduction from baseline corrected for placebo (irritable bowel syndrome [2]; [10]): 13%
- Total AE % of patients reporting AEs corrected for placebo (irritable bowel syndrome [2]; [10]): 20%
- Urgency % Reduction from baseline corrected for placebo (irritable bowel syndrome [2]; [10]): 32%
- Vision % of patients reporting AEs corrected for placebo (irritable bowel syndrome [2]; [10]): 4.2%
- Constipation % of patients reporting AEs (irritable bowel syndrome [2]; [10]): 11.3%
- Dry Mouth % of patients reporting AEs (irritable bowel syndrome [2]; [10]): 49.6%
- Global Rating % Reduction from baseline (irritable bowel syndrome [2]; [10]): 32%
- Loose Stool % Reduction from baseline (irritable bowel syndrome [2]; [10]): 52%
- Pain Score % Reduction from baseline (irritable bowel syndrome [2]; [10]): 36%
- Total AE % of patients reporting AEs (irritable bowel syndrome [2]; [10]): 60%
- Urgency % Reduction from baseline (irritable bowel syndrome [2]; [10]): 57%
- Vision % of patients reporting AEs (irritable bowel syndrome [2]; [10]): 7.8%
- all four efficacy measures (Pain Score, Loose Stool, Urgency and Global Rating) (irritable bowel syndrome [2]; immediate release tid study, all three doses): marked improvements
- darifenacin plasma concentration (FIG. 1) [3]: periodic ‘peaking’ of the darifenacin plasma concentration above that of the controlled release curve
